From publication PMC7228129, “Evaluation of Developmental Toxicity, Developmental Neurotoxicity, and Tissue Dose in Zebrafish Exposed to GenX and Other PFAS” (Environmental Health Perspectives, 2020)
“Also recorded” adds a separate entry of the source. Where two headings read alike, the source gives them in different places.

Columns and labels:
[1] = system: zebrafish; experiment: Developmental neurotoxicity (DNT) assay, light/dark locomotor behavior test; type: in vivo, Danio rerio; details: for Concentration causing hyperactivity in D1 period: dark 1; for Concentration causing hyperactivity in D1 period / Concentration causing hyperactivity in D2 period / Concentration causing hyperactivity in L1 period / Concentration causing hyperactivity in L2 period: vs 0.4% DMSO; for Concentration causing hyperactivity in D2 period: dark 2; for Concentration causing hyperactivity in L1 period: light 1; for Concentration causing hyperactivity in L2 period: light 2; for DNT assay phenotype: Table 5 summary, this study (some rows also list literature)
Protocol: (§1) At 0 dpf, zebrafish embryos were bleached as previously described ([Tal et al. 2017]). A single embryo at the dome-to-epiboly stages ([Kimmel et al. 1995]) was placed into each individual well of a 96-well plate containing a 40-μm nylon mesh filter (Millipore, Catalog No. MANMN4010) with 400μL of 10% Hanks’ balanced salt solution (HBSS) per well. Filter inserts containing zebrafish embryos were transferred to 96-well culture trays (Millipore, Catalog No. MAMCS9610) containing 250μL of 10% HBSS ([Westerfield 2007]) and 1μL of 250× working solutions per well. A final concentration of 0.4% DMSO was used for all exposure groups and as a vehicle control. In the case of GenX Free Acid in Study 2 (Figure 1), DI water was used as a vehicle control. Daily, from 1–5 dpf, plates underwent 100% media changes to refresh chemical dosing solutions by blotting (Brandel; Catalog No. FPXLR-196) and transferring mesh inserts containing zebrafish to new bottom plates (Millipore; Catalog No. MAMCS9610). To minimize evaporation, plates were sealed (Biorad; Catalog No. MSA5001) and wrapped with parafilm. Plates were maintained on a 14 h:10 h light cycle at 26.0°C and scored daily for death, malformations, hatching, and swim bladder inflation. At 6 dpf, plates were evaluated by two independent observers and DevTox or DNT assays were performed or media and tissue were collected for analytical chemistry analyses as described below.
To increase the likelihood of observing behavioral effects in morphologically normal larvae, the highest concentration evaluated in the DNT assay was the lowest observed effect concentration (LOEC) determined in DevTox assay. Zebrafish were exposed in parallel to 4.4, 7.9, 14.0, 25.1, 44.8, or 80.0μM PFOA, PFHxS, PFHxA, or ADONA or 0.2, 0.3, 0.6, 1.0, 1.8, or 3.1μM PFOS or 0.4% DMSO. Subsequently, as part of Study 1, exposure to 4.4, 7.9, 14.0, 25.1, 44.8, or 80.0μM PFESA1, or 0.4% DMSO was evaluated. In Study 2, zebrafish were exposed to 4.4, 7.9, 14.0, 25.1, 44.8, or 80.0μM GenX Free Acid, or DI water. In Study 3, to increase the likelihood of observing malformations with shorter-chain compounds at multiple test concentrations, the highest concentration evaluated was 100.0μM . Zebrafish were exposed to 5.5, 9.8, 17.6, 31.4, 56.0, or 100.0μM PFBS; 3.1, 5.5, 9.8, 17.6, 31.4, or 56.0μM PFHxS; 1.7, 3.1, 5.5, 9.8, 17.6, or 31.4μM PFHpS; or 0.5, 1.0, 1.7, 3.1, 5.5, or 9.8μM PFOS, or 0.4% DMSO. Subsequently, as part of Study 3, zebrafish were exposed to 3.1, 5.5, 9.8, 17.6, 31.4, or 56.0μM PFPeS, or 0.4% DMSO. Chemical exposures and assessments were performed daily, as described above. To evaluate swimming behavior in a light/dark behavior test, microtiter plates were placed in a dark, temperature-controlled behavior testing room set to 26.0°C for at least 2 h prior to testing. At the time of testing, microtiter plates were placed on a Noldus tracking apparatus. Locomotor activity was recorded (30 frames/s) for a total of 60 min consisting of a 20-min dark acclimation period (0 lux) that was not analyzed followed by a 40-min testing period consisting of a 20-min light period (5.0 lux) and 20-min dark period (0 lux). Videos were analyzed using Ethovision software (version 3.1; Noldus Information Technology) as previously described ([Jarema et al. 2015]). Locomotor activity was collected for each individual fish for each 2-min period (minimum distance moved, set to 0.135cm ). Thus, for a 40-min test, 20 data points were collected per larvae. […] Four additional criteria for inclusion of individual larvae were applied. One, all larvae that were identified as abnormal, severely abnormal, or dead were excluded. Two, larvae with uninflated swim bladders were removed from analyses. Three, individual larvae that moved <2cm in either […] dark period were removed.

[2] = system: zebrafish; experiment: Developmental toxicity (DevTox) assay; type: in vivo, Danio rerio; details: for EC50: Hill fit; for DevTox assay phenotype: Table 5 summary, this study (some rows also list literature)
Protocol: as §1
In Study 1 (Figure 1), zebrafish were exposed, as described in the “Chemical Exposures” section, to 0.04, 0.1, 0.4, 1.1, 3.1, 9.3, 27.2, or 80.0μM PFOS, PFOA, PFHxS, PFHxA, or ADONA, or 0.4% DMSO. Six 96-well plates were tested with a single chemical concentration included on each microtiter plate. Subsequently, as part of Study 1, zebrafish were exposed to 0.04, 0.1, 0.4, 1.1, 3.1, 9.3, 27.2, or 80.0μM PFESA1, or 0.4% DMSO. In Study 2, GenX Free Acid diluted in DI water was tested by exposing zebrafish to 0.04, 0.1, 0.4, 1.1, 3.1, 9.3, 27.2, or 80.0μM of the compound or DI water. […] Zebrafish were exposed to 1.7, 3.1, 5.5, 9.8, 17.6, 31.4, 56.0, or 100.0μM of PFBS, PFHxS, PFHpS, or PFOS or 0.4% DMSO. Subsequently, zebrafish were exposed to 1.7, 3.1, 5.5, 9.8, 17.6, 31.4, 56.0, or 100.0μM PFPeS, or 0.4% DMSO. Chlorpyrifos was used as positive control for malformations ( 8.0μM ) and lethality ( 80.0μM ) ([Padilla et al. 2012]; [Tal et al. 2017]). To conduct DevTox assay assessments, at 6 dpf, two independent observers evaluated zebrafish larvae for survival, hatching, swim bladder inflation, and malformations, including curved body axis, shortened trunk, pericardial edema, yolk sac edema, necrotic yolk sac, pectoral fin abnormalities and head/jaw abnormalities. Directly after assessments, data were reviewed and, in the case of discrepancies, consensus calls were reached. Toxicity values were assigned to descriptive data (i.e., normal=0 , abnormal=20 , severely abnormal=50 , and dead=100 ), modified from a previously described approach ([Padilla et al. 2012]). Briefly, animals with a single malformation were scored as abnormal, whereas animals with ≥2 malformations were scored as severely abnormal.
For the DevTox assay, a Kruskal-Wallace nonparametric one-way analysis of variance (ANOVA) with a Dunn’s multiple comparison test was used to detect differences between exposure groups (* p<0.05 , ** p<0.0001 ) and LOEC values were determined. If a test for linear trend was significant ( p<0.05 ), with developmental toxicity observed at the highest concentration tested, nonlinear regression was performed with a Hill slope curve fitting for half maximal effective concentration ( EC50 ) value determinations.

[3] = system: zebrafish; details: Table 5 summary; zebrafish; ref Hagenaars et al. 2011; Ulhaq et al. 2013a; cited from earlier work
[4] = system: zebrafish; details: Table 5 summary, ref Ulhaq et al. 2013b; cited from earlier work
[5] = Study 3, daily 0–5 dpf, tested 6 dpf
[6] = Danio rerio, Study 3, 1.7–100.0 μM daily 0–5 dpf, scored 6 dpf, 0.4% DMSO
[7] = Study 3, 1.7–100.0 μM daily 0–5 dpf, scored 6 dpf, 0.4% DMSO

Compound | Concentration causing hyperactivity in D1 period [1, 5] | Concentration causing hyperactivity in D2 period [1, 5] | Concentration causing hyperactivity in L1 period [1, 5] | Concentration causing hyperactivity in L2 period [1, 5] | DNT assay phenotype [1] | EC50 [2, 6] | DevTox assay phenotype [2] | LOEC for developmental toxicity ([2]; sulfonic acid PFAS study, 1.7–100.0 μM daily 0–5 dpf, scored 6 dpf, 0.4% DMSO) | EC50 [2, 7] | DevTox assay phenotype [3] | Developmental neurotoxicity / locomotor activity outcome ([1]; Study 3, daily 0–5 dpf, tested 6 dpf, 0.4% DMSO) | Developmental toxicity outcome [2, 7] | DNT assay phenotype [4]
O=S(=O)(O)C(F)(F)C(F)(F)C(F)(F)C(F)(F)C(F)(F)C(F)(F)C(F)(F)F [PFHpS, Perfluoroheptanesulfonic acid] | 3.1 to 5.5 µM | no effect | 5.5 µM | 3.1 to 5.5 µM | Hyperactivity^a | 168 µM | Positive^a | 31.4 µM | – | – | – | – | –
O=S(=O)(O)C(F)(F)C(F)(F)C(F)(F)C(F)(F)C(F)(F)F [PFPeS, Perfluoropentanesulfonic acid] | no effect | no effect | 5.5 µM | 3.1 to 5.5 µM | Hyperactivity^a | 48.8 µM | Positive^a | – | 48.8 µM | – | – | – | –
O=S(=O)(O)C(F)(F)C(F)(F)C(F)(F)C(F)(F)F [PFBS, Perfluorobutanesulfonic acid] | – | – | – | – | Negative^a | – | Negative | – | – | Positive | did not result in significant locomotor effects; also recorded: negative | negative | Hyperactivity
